≈ marks a conversion by molar mass, not a printed value.
Experiments:
Format in all cases: functional
Klebsiella pneumoniae [1] = assay: Antimicrobial activity against ESBL-positive Klebsiella pneumoniae 287942 harboring porin OmpK36 gene by Etest
Klebsiella pneumoniae [2] = assay: Antimicrobial activity against ESBL-positive Klebsiella pneumoniae 26077 harboring porin OmpK36V mutant gene by Etest
Klebsiella pneumoniae [3] = assay: Antimicrobial activity against ESBL-negative Klebsiella pneumoniae 30018 harboring porin OmpK35 gene by Etest
Klebsiella pneumoniae [4] = assay: Antimicrobial activity against ESBL-positive Klebsiella pneumoniae 18260 by Etest
Klebsiella pneumoniae [5] = assay: Antimicrobial activity against ESBL-positive Klebsiella pneumoniae 69928 harboring porin OmpK36V mutant gene by Etest
Klebsiella pneumoniae [6] = assay: Antimicrobial activity against ESBL-positive Klebsiella pneumoniae 6267 harboring porin OmpK36V mutant gene by Etest
Klebsiella pneumoniae [7] = assay: Antimicrobial activity against ESBL-positive Klebsiella pneumoniae 16855 harboring porin OmpK36 and OmpK35 genes by Etest
Klebsiella pneumoniae [8] = assay: Antimicrobial activity against ESBL-positive Klebsiella pneumoniae 31750 harboring porin OmpK36 gene by Etest
Klebsiella pneumoniae [9] = assay: Antimicrobial activity against ESBL-positive Klebsiella pneumoniae 19039 harboring porin OmpK36V mutant gene by Etest
Klebsiella pneumoniae [10] = assay: Antimicrobial activity against ESBL-positive Klebsiella pneumoniae 18260 harboring pSHA2-encoded porin OmpK36 gene by Etest
Klebsiella pneumoniae [11] = assay: Antimicrobial activity against ESBL-positive Klebsiella pneumoniae 17829 harboring pSHA2-encoded porin OmpK36 gene by Etest
Klebsiella pneumoniae [12] = assay: Antimicrobial activity against ESBL-positive Klebsiella pneumoniae 17049 harboring porin OmpK36V mutant gene by Etest
Klebsiella pneumoniae [13] = assay: Antimicrobial activity against ESBL-positive Klebsiella pneumoniae 18567 harboring porin OmpK36V mutant gene by Etest
Klebsiella pneumoniae [14] = assay: Antimicrobial activity against ESBL-positive Klebsiella pneumoniae 69036 harboring porin OmpK36V mutant gene by Etest
Klebsiella pneumoniae [15] = assay: Antimicrobial activity against ESBL-positive Klebsiella pneumoniae 71697 harboring porin OmpK36V mutant gene by Etest
Klebsiella pneumoniae [16] = assay: Antimicrobial activity against ESBL-positive Klebsiella pneumoniae 25008 by Etest
Klebsiella pneumoniae [17] = assay: Antimicrobial activity against ESBL-positive Klebsiella pneumoniae 18918 harboring porin OmpK36V mutant gene by Etest
Klebsiella pneumoniae [18] = assay: Antimicrobial activity against ESBL-positive Klebsiella pneumoniae 29459 harboring porin OmpK36 gene by Etest
Klebsiella pneumoniae [19] = assay: Antimicrobial activity against ESBL-positive Klebsiella pneumoniae 17834 harboring porin OmpK36V mutant gene by Etest
Klebsiella pneumoniae [20] = assay: Antimicrobial activity against ESBL-negative Klebsiella pneumoniae 299332 harboring porin OmpK36 gene by Etest
Klebsiella pneumoniae [21] = assay: Antimicrobial activity against ESBL-positive Klebsiella pneumoniae 11932 harboring porin OmpK36 gene by Etest
Klebsiella pneumoniae [22] = assay: Antimicrobial activity against ESBL-positive Klebsiella pneumoniae 50748 harboring porin OmpK36 gene by Etest
Klebsiella pneumoniae [23] = assay: Antimicrobial activity against ESBL-positive Klebsiella pneumoniae 17830 harboring porin OmpK36V mutant gene by Etest
Klebsiella pneumoniae [24] = assay: Antimicrobial activity against ESBL-positive Klebsiella pneumoniae 29830 harboring porin OmpK36V mutant gene by Etest
Klebsiella pneumoniae [25] = assay: Antimicrobial activity against ESBL-positive Klebsiella pneumoniae 17829 by Etest
Klebsiella pneumoniae [26] = assay: Antimicrobial activity against ESBL-positive Klebsiella pneumoniae 16830 harboring porin OmpK36 gene by Etest

## CC(C)(O/N=C(\C(=O)N[C@@H]1C(=O)N2C(C(=O)[O-])=C(C[n+]3ccccc3)CS[C@H]12)c1csc(N)n1)C(=O)O [CEFTAZIDIME]
Klebsiella pneumoniae [1]
  MIC: > 32 µg/mL
Klebsiella pneumoniae [2]
  MIC: > 32 µg/mL
Klebsiella pneumoniae [3]
  MIC: < 0.5 µg/mL
Klebsiella pneumoniae [4]
  MIC: > 32 µg/mL
Klebsiella pneumoniae [5]
  MIC: > 32 µg/mL
Klebsiella pneumoniae [6]
  MIC: > 32 µg/mL
Klebsiella pneumoniae [7]
  MIC: > 32 µg/mL
Klebsiella pneumoniae [8]
  MIC: > 32 µg/mL
Klebsiella pneumoniae [9]
  MIC: > 32 µg/mL
Klebsiella pneumoniae [10]
  MIC: > 32 µg/mL
Klebsiella pneumoniae [11]
  MIC: > 32 µg/mL
Klebsiella pneumoniae [12]
  MIC: > 32 µg/mL
Klebsiella pneumoniae [13]
  MIC: > 32 µg/mL
Klebsiella pneumoniae [14]
  MIC: > 32 µg/mL
Klebsiella pneumoniae [15]
  MIC: > 32 µg/mL
Klebsiella pneumoniae [16]
  MIC: > 32 µg/mL
Klebsiella pneumoniae [17]
  MIC: > 32 µg/mL
Klebsiella pneumoniae [18]
  MIC: > 32 µg/mL
Klebsiella pneumoniae [19]
  MIC: > 32 µg/mL
Klebsiella pneumoniae [20]
  MIC: < 0.5 µg/mL
Klebsiella pneumoniae [21]
  MIC: > 32 µg/mL
Klebsiella pneumoniae [22]
  MIC: > 32 µg/mL
Klebsiella pneumoniae [23]
  MIC: > 32 µg/mL
Klebsiella pneumoniae [24]
  MIC: > 32 µg/mL
Klebsiella pneumoniae [25]
  MIC: > 32 µg/mL
Klebsiella pneumoniae [26]
  MIC: > 32 µg/mL

## C[C@@H](O)[C@H]1C(=O)N2C(C(=O)O)=C(SCCNC=N)C[C@H]12 [IMIPENEM ANHYDROUS]
Klebsiella pneumoniae [1]
  MIC: 0.19 µg/mL (≈ 0.635 µM)
Klebsiella pneumoniae [2]
  MIC: 0.19 µg/mL (≈ 0.635 µM)
Klebsiella pneumoniae [3]
  MIC: 0.25 µg/mL (≈ 0.835 µM)
Klebsiella pneumoniae [4]
  MIC: 12 µg/mL (≈ 40.1 µM)
Klebsiella pneumoniae [5]
  MIC: 0.5 µg/mL (≈ 1.67 µM)
Klebsiella pneumoniae [6]
  MIC: 0.5 µg/mL (≈ 1.67 µM)
Klebsiella pneumoniae [7]
  MIC: 0.25 µg/mL (≈ 0.835 µM)
Klebsiella pneumoniae [8]
  MIC: 0.19 µg/mL (≈ 0.635 µM)
Klebsiella pneumoniae [9]
  MIC: 0.19 µg/mL (≈ 0.635 µM)
Klebsiella pneumoniae [10]
  MIC: 1 µg/mL (≈ 3.34 µM)
Klebsiella pneumoniae [11]
  MIC: 1 µg/mL (≈ 3.34 µM)
Klebsiella pneumoniae [12]
  MIC: 0.25 µg/mL (≈ 0.835 µM)
Klebsiella pneumoniae [13]
  MIC: 0.19 µg/mL (≈ 0.635 µM)
Klebsiella pneumoniae [14]
  MIC: 0.19 µg/mL (≈ 0.635 µM)
Klebsiella pneumoniae [15]
  MIC: 0.19 µg/mL (≈ 0.635 µM)
Klebsiella pneumoniae [16]
  MIC: 1 µg/mL (≈ 3.34 µM)
Klebsiella pneumoniae [17]
  MIC: 0.19 µg/mL (≈ 0.635 µM)
Klebsiella pneumoniae [18]
  MIC: 0.19 µg/mL (≈ 0.635 µM)
Klebsiella pneumoniae [19]
  MIC: 0.19 µg/mL (≈ 0.635 µM)
Klebsiella pneumoniae [20]
  MIC: 0.25 µg/mL (≈ 0.835 µM)
Klebsiella pneumoniae [21]
  MIC: 0.19 µg/mL (≈ 0.635 µM)
Klebsiella pneumoniae [22]
  MIC: 0.25 µg/mL (≈ 0.835 µM)
Klebsiella pneumoniae [23]
  MIC: 0.19 µg/mL (≈ 0.635 µM)
Klebsiella pneumoniae [24]
  MIC: 0.19 µg/mL (≈ 0.635 µM)
Klebsiella pneumoniae [25]
  MIC: 12 µg/mL (≈ 40.1 µM)
Klebsiella pneumoniae [26]
  MIC: 0.125 µg/mL (≈ 0.418 µM)

Reference: ChEMBL document CHEMBL1671734, “An ertapenem-resistant extended-spectrum-beta-lactamase-producing Klebsiella pneumoniae clone carries a novel OmpK36 porin variant” (2010)
